Measurements taken from US11642332B2, “(2R,4R)-5-(5′-chloro-2′-fluorobiphenyl-4-yl)-2-hydroxy-4-[(5-methyloxazole-2-carbonyl)amino]pentanoic acid” (THERAVANCE BIOPHARMA R&D IP, LLC, priority 2015, dated 2023).

Columns and labels:
[1] = molecular target: T1, human neprilysin (EC 3.4.24.11; NEP) (Homo sapiens, UniProt P08473); experiment: In vitro assay for the quantitation of inhibitor potency at human NEP; type: biochemical; conditions: recombinant human NEP, fluorogenic peptide substrate 10 μM, 37° C.; read-out: pKi at human NEP (converted)
T1 construct: purchased R&D Systems 1182-ZN
T1 sequence (P08473 52-750 limits assumed): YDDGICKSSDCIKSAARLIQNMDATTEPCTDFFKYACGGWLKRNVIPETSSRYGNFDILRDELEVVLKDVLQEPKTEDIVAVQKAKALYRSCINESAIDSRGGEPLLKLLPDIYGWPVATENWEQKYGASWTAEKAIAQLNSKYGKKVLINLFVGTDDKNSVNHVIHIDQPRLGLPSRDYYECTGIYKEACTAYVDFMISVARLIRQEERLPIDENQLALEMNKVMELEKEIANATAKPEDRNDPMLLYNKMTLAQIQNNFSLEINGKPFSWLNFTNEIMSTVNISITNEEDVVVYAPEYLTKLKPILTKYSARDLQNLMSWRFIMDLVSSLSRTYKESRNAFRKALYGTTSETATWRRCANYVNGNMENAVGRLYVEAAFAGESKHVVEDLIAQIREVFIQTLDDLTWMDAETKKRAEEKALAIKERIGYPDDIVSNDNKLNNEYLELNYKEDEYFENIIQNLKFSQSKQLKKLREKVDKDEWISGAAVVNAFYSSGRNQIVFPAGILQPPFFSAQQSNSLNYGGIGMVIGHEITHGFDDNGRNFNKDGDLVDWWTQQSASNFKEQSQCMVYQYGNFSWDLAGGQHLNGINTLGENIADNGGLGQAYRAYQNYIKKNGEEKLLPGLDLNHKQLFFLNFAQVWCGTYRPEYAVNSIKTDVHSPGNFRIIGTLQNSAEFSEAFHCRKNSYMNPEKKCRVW
Method: The inhibitory activity at human neprilysin (EC 3.4.24.11; NEP) was determined as follows.
Recombinant human NEP was obtained commercially (R&D Systems, Minneapolis, Minn., catalog number 1182-ZN). The fluorogenic peptide substrate Mca-D-Arg-Arg-Leu-Dap-(Dnp)-OH (Medeiros et al. (1997) Braz. J. Med. Biol. Res. 30:1157-62; Anaspec, San Jose, Calif.) was used.
The assay was performed in 384-well white opaque plates at 37° C. using the fluorogenic peptide substrate at a concentration of 10 μM in Assay Buffer (50 mM HEPES, pH 7.5, 100 mM NaCl, 0.01% polyethylene glycol sorbitan monolaurate (Tween-20), 10 μM ZnSO4).
Test compounds were assayed over the range of concentrations from 10 μM to 20 pM. Test compounds were added to the enzyme and incubated for 30 minute at 37° C. prior to initiating the reaction by the addition of substrate. Reactions were terminated after 20 minutes of incubation at 37° C. by the addition of glacial acetic acid to a final concentration of 3.6% (v/v).
Plates were read on a fluorometer with excitation and emission wavelengths set to […]. Inhibition constants were obtained by nonlinear regression of the data using the equation (GraphPad Software, Inc., San Diego, Calif.): v=v0/[1+(I/K′)] where v is the reaction rate, v0 is the uninhibited reaction rate, I is the inhibitor concentration and K′ is the apparent inhibition constant.
The compounds were tested in this assay and found to have pKi values at human NEP as follows.

[2] = IV/PO pharmacokinetic study in rats; type: in vivo, male Sprague-Dawley rats; design: AUC(0-t): concentration or dose not given beside the values; conditions: rat; for AUC(0-t) / bioavailability: male, Sprague-Dawley, plasma; for AUC(0-t): read-out: AUClast Mean; for bioavailability: PO vs IV AUClast; for CLlast Mean: dose divided by AUClast
Method: (§1) Each rat or dog PK study began with formulation of the test compound. Appropriate masses of each test compound were added into a volume of vehicle (e.g. 5% sodium bicarbonate, 5% dextrose in H2O) such that the final concentration of each compound was appropriate to be dosed at 2 mL/kg. Although a homogenous suspension were acceptable for oral dosing, intravenous dosing solutions were sterile-filtered (0.2 μm) prior to dosing to ensure no particulates were administered.
In the rat study, pre-cannulated male Sprague-Dawley rats (3 per route) between 8 and 10 weeks of age were obtained from Harlan Laboratories (Indianapolis, Ind.). Rats received either a single oral gavage or a single intravenous (via lateral tail vein) dose of the dosing solution. The final dose was typically 0.5-3 mg/kg. Serial blood samples were harvested via the cannula implanted in the jugular vein at 3 minutes, 15 minutes, 30 minutes, 1 hour, 2 hours, 4 hours, 6 hours, and 24 hours post-dose. Sampling was performed either manually or using automated blood samplers. Samples were collected into microtainer tubes containing EDTA as the anticoagulant and were processed to plasma by refrigerated centrifugation.
(§2) Plasma samples were extracted with 3 volumes of MeCN containing a suitable internal standard. Extracts were reconstituted into 3 volumes of water containing 1% formic acid, and analyzed via HPLC-coupled MS/MS. Plasma concentration-time data were analyzed using the Phoenix software (Pharsight Corp., St. Louis, Mo.) to calculate pharmacokinetic parameters.
(§3) Plasma clearance was determined from the intravenous arm of the study, and represents the rate at which plasma is cleared of drug. It is equal to the dose divided by the area under the plasma concentration-time curve. In addition to plasma clearance, it is also essential for an orally administered drug to reach efficacious systemic levels following oral delivery. Oral bioavailability is a measurement of plasma exposures following oral administration relative to exposures following intravenous administration.

[3] = IV/PO pharmacokinetic study in dogs; type: in vivo, male beagle dogs; design: AUC(0-t): concentration or dose not given beside the values; conditions: dog; for AUC(0-t) / bioavailability: male, beagle, plasma; for AUC(0-t): read-out: AUClast Mean; for bioavailability: PO vs IV AUClast
Method: as §1
In the dog study, male beagle dogs (3 per route) housed at Agilux Laboratories (Worcester, Mass.) and weighing between 7-12 kg received either a single oral gavage or a single intravenous (via indwelling catheter) dose of the dosing solution. The final dose was typically 0.1-2 mg/kg. Serial blood samples were harvested via direct venipuncture at 3 minutes, 15 minutes, 30 minutes, 1 hour, 2 hours, 4 hours, 6 hours, 8 hours, 12 hours, and 24 hours post-dose. All samples were collected manually into microtainer tubes containing EDTA as the anticoagulant and were processed to plasma by refrigerated centrifugation.
as §2, §3

NEP = molecular target: T2, NEP (Rattus norvegicus, UniProt P07861); experiment: PK-PD assay for NEP activity in conscious normotensive Sprague-Dawley rats (plasma cGMP after ANP bolus); type: in vivo, male Sprague-Dawley rats; conditions: rat plasma, 3 mg/kg oral, 15 min after IV ANP bolus (30 μg/kg); average of three determinations
T2 construct: Pre-cannulated male Sprague-Dawley rats (3 per compound evaluated) between 8 and 10 weeks of age were obtained from Harlan Laboratories; from tissue; host or cells: whole animal: conscious male Sprague-Dawley rats (Harlan Laboratories)
T2 sequence (P07861 1-750): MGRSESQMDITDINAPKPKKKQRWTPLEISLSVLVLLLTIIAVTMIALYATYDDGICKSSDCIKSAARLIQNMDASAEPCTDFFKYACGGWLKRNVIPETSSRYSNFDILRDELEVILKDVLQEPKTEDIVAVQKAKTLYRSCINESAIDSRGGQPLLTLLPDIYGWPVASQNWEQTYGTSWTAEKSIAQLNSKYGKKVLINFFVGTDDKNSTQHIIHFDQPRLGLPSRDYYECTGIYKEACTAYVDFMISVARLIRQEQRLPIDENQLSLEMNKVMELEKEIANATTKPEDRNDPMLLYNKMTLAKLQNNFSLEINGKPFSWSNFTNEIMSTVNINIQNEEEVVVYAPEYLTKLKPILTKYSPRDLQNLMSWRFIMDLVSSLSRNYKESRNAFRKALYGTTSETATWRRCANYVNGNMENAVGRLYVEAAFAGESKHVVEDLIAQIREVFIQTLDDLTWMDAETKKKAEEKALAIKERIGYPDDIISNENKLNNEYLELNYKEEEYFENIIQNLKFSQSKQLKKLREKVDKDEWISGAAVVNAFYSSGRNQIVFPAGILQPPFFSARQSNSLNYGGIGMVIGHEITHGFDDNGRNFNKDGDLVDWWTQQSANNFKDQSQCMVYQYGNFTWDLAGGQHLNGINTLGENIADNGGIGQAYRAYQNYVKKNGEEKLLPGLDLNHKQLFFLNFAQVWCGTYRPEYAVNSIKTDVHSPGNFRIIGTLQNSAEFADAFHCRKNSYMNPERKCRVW
Method: Appropriate masses of each test compound were added into a volume of vehicle (e.g. 5% sodium bicarbonate, 5% dextrose in H2O) such that the final concentration of each compound was appropriate to be dosed at 2 mL/kg. Note that a homogenous suspension was deemed to be acceptable for oral dosing.
Pre-cannulated male Sprague-Dawley rats (3 per compound evaluated) between 8 and 10 weeks of age were obtained from Harlan Laboratories (Indianapolis, Ind.). Rats received a single oral gavage of the dosing solution. The final dose was typically in the range of 3-30 mg/kg. Serial blood samples were harvested via the cannula implanted in the jugular vein at 3 minutes, 15 minutes, 35 minutes, 45 minutes, 1 hour, 2 hours, 4 hours, 6 hours, and 24 hours post-dose. Samples were collected into microtainer tubes containing EDTA as the anticoagulant and were processed to plasma by refrigerated centrifugation. Fifteen minutes prior to the 45 minute, 2 hour, 4 hour, 6 hour, and 24 hour samples, an IV bolus (30 μg/kg) of Atrial Natriuretic Peptide (ANP) was administered. […] Since binding of ANP to its receptor leads to activation of guanylyl cyclase and subsequent production of cyclic guanosine monophosphate (cGMP), the observation of elevated levels of cGMP (>20 nM) in plasma 15 minutes after the IV administration of the ANP bolus was interpreted as evidence of ongoing neprilysin inhibition. Elevated levels plasma cGMP levels 24 hours after dosing is an indicator of the duration pharmacologic effect, analogous to plasma clearance values as indicators of pharmacokinetic persistence.
Plasma samples were extracted with 3 volumes of MeCN containing a suitable internal standard. Extracts were reconstituted into 3 volumes of water containing 1% formic acid. Plasma cGMP and test compound concentrations were quantified in plasma samples by HPLC-coupled mass spectrometric detection.

[4] = Dynamic moisture sorption (DMS) assessment; type: physicochemical
Method: DMS measurements were performed using a VTI atmospheric microbalance, SGA-100 system (VTI Corp., Hialeah, Fla. 33016). A weighed sample was used and the humidity was lowest possible value (close to 0% relative humidity) at the start of the analysis. The DMS analysis consisted of a scan rate of 5% relative humidity/step over the full humidity range of 5-90%. The DMS run was performed isothermally at 25° C.

SMILES	Ki [1]	AUC(0-t) ([2]; IV)	bioavailability [2]	AUC(0-t) ([2]; PO)	CLlast Mean ([2]; IV)	CLlast Mean ([3]; IV)	AUC(0-t) ([3]; IV)	bioavailability [3]	AUC(0-t) ([3]; PO)	cGMP Concentration 24 hours After Dosing Mean (NEP)	total moisture gain ([4]; 5-70% relative humidity, 25° C.)	total moisture gain ([4]; 5-90% relative humidity, 25° C.)	hygroscopicity (DMS isotherm) ([4]; 25° C.)	solid form (PXRD) after sorption-desorption cycles ([4]; after two sorption-desorption cycles)
COc1cc(C(=O)N[C@H](Cc2ccc(-c3cc(Cl)ccc3F)cc2)C[C@@H](O)C(=O)O)on1 [Comparison Compound C2, (2R,4R)-5-(5′-Chloro-2′-fluorobiphenyl-4-yl)-2-hydroxy-4-[(3-methoxyisoxazole-5-carbonyl)amino]pentanoic Acid]	0.126 nM	480 ng·h/mL	20%	110 ng·h/mL	28.3 mL/min/kg	10.8 mL/min/kg	160 ng·h/mL	99%	160 ng·h/mL	45 nM	–	–	–	–
CCc1ncc(C(=O)N[C@H](Cc2ccc(-c3cc(Cl)ccc3F)cc2)C[C@@H](C)C(=O)O)o1 [Comparison Compound C3, (2R,4S)-5-(5′-Chloro-2′-fluorobiphenyl-4-yl)-4-[(2-ethyloxazole-5-carbonyl)amino]-2-methylpentanoic Acid]	0.794 nM	1500 ng·h/mL	60%	880 ng·h/mL	10 mL/min/kg	9.83 mL/min/kg	170 ng·h/mL	64%	130 ng·h/mL	47 nM	–	–	–	–
C[C@H](C[C@@H](Cc1ccc(-c2cc(Cl)ccc2F)cc1)NC(=O)c1cnco1)C(=O)O [Comparison Compound C4, (2R,4S)-5-(5′-Chloro-2′-fluorobiphenyl-4-yl)-2-methyl-4-[(oxazole-5-carbonyl)amino]pentanoic Acid]	0.501 nM	830 ng·h/mL	60%	500 ng·h/mL	11.2 mL/min/kg	25.7 mL/min/kg	70 ng·h/mL	42%	30 ng·h/mL	53 nM	–	–	–	–
Cc1cnc(C(=O)N[C@H](Cc2ccc(-c3cc(Cl)ccc3F)cc2)C[C@@H](O)C(=O)O)o1 [Compound 1′, (2R,4R)-5-(5′-Chloro-2′-fluorobiphenyl-4-yl)-2-hydroxy-4-[(5-methyloxazole-2-carbonyl)amino]pentanoic Acid]	–	–	–	–	–	–	–	–	–	–	less than 0.025 % by weight	less than 0.235 % by weight	non-hygroscopic solid	no change in form
